Experimental findings from patent US9957230B2, “Synergistic compositions” (Cadila Healthcare Limited, priority 2013, dated 2018) are described below.

Counter-ions that a name gives are not always drawn.

For assay [1], the system named is high fat high cholesterol fed Syrian golden hamster. The experiment in a line: Lipid lowering effects with Rosuvastatin Calcium in HF-HC fructose diet Syrian golden hamsters (study III). Format: in vivo. The following applies: Compound (Ia) 3 mg/kg. The text has this:
The in-vivo efficacy was done in high fat high cholesterol fed Syrian golden hamster. It is an excellent model to investigate hepatic assembly and secretion of lipoprotein since its lipoprotein metabolism closely resembles that of humans as they have cholesteryl ester transfer protein (CETP) as like human. Feeding high fat high cholesterol diet to Syrian golden hamster causes hypercholesterolemia and hypertriglyceridemia which causes an increase in LDL levels and decrease in HDL-C/TC ratio.
In this experiment, 21 Syrian golden hamsters which were kept on high fat-high cholesterol (HF-HC) fructose diet were divided into 3 treatment groups and one group was on normal diet control which was NIN (National Institute of Nutrition, NIN diet) control, the treatment given was as per Table no. 1. NIN control and HF-HC fructose diet vehicle control groups were treated with vehicle (10% Polyethylene glycol (PEG) 400+90% of 0.5% methyl cellulose) and other three groups with treatment mentioned in Table no. 13. The treatment was given oral gavages once daily for 7 days.
Calculations of the % change in LDL-C levels, HDL-C and LDL-C/HDL-C ratio (Vs HF-HC fructose diet control) were performed using MS Excel.

Another assay concerns db/db mice. The experiment in a line: Antidiabetic activity with Vildagliptin and Metformin in db/db mice (study IV): non-fasting serum glucose. Format: in vivo. The settings on record: Vildagliptin 1 mg/kg. The source says: The in-vivo efficacy for antidiabetic activity was done female db/db mice of 10-15 weeks of age.
1. […] 17. The treatment was given oral gavages once daily for 14 days.
The OGTT procedure followed is as given below—

Where [2] appears, read: HF-HC fructose diet hamsters, 7 days, Rosuvastatin calcium 0.3 mg/kg.

As for `CCO[C@@H](Cc1ccc(OCCn2c(C)ccc2-c2ccc(SC)cc2)cc1)C(=O)O` [Compound (Ia), Benzenepropanoic acid, α-ethoxy-4-[2-[2-methyl-5-[4-(methylthio)phenyl]-1H -pyrrol-1-yl]ethoxy]-, magnesium salt], in assay [1] (setting [2]), the “reduction in LDL-C” value was found to be 9.9% and the “reduction in LDL-C/HDL-C ratio, atherogenic index” value is on record as 4.9%. For the same compound, the “Serum LDL-C (mg/dl) Day 0” value in assay [1] (Table 14, Day 0 (pretreatment), HF-HC fructose diet hamsters, Rosuvastatin calcium 0.3 mg/kg oral once daily 7 days) came to 114.8 mg/dL. In addition, the “LDL-C % Change vs Day 0” value in assay [1] (Table 14, Day 7, Rosuvastatin calcium 0.3 mg/kg) is 9.2%. Besides, the “Serum LDL-C (mg/dl) Day 7” value in assay [1] (Table 14, Day 7, HF-HC fructose diet hamsters, Rosuvastatin calcium 0.3 mg/kg oral once daily 7 days) turned out to be 123.7 mg/dL. Also, in assay [1] (Table 14, LDL-C, Day 7, Rosuvastatin calcium 0.3 mg/kg), the “% Change vs HF-HC Fructose Control” value was −9.9%. The “Serum HDL-C (mg/dl) Day 0” value in assay [1] (Table 15, Day 0 (pretreatment), HF-HC fructose diet hamsters, Rosuvastatin calcium 0.3 mg/kg oral once daily 7 days) is 101.8 mg/dL. Besides, in assay [1] (Table 15, Day 7, Rosuvastatin calcium 0.3 mg/kg), the “HDL-C % Change vs Day 0” value is given as 9.8%. Moreover, the “Serum HDL-C (mg/dl) Day 7” value in assay [1] (Table 15, Day 7, HF-HC fructose diet hamsters, Rosuvastatin calcium 0.3 mg/kg oral once daily 7 days) came out at 111.5 mg/dL. In addition, the “Serum LDL-C/HDL-C Ratio Day 0” value in assay [1] (Table 16, Day 0 (pretreatment), HF-HC fructose diet hamsters, Rosuvastatin calcium 0.3 mg/kg) came to 1.13. Besides, in assay [1] (Table 16, Day 7, Rosuvastatin calcium 0.3 mg/kg), the “LDL/HDL % Change Vs Day 0” value is reported as −0.3%. Moreover, the “Serum LDL-C/HDL-C Ratio Day 7” value in assay [1] (Table 16, Day 7, HF-HC fructose diet hamsters, Rosuvastatin calcium 0.3 mg/kg) came to 1.09. Also, the “% Change vs HF-HC Fructose Control” value in assay [1] (Table 16, LDL-C/HDL-C ratio, Day 7, Rosuvastatin calcium 0.3 mg/kg) is recorded as −4.9%. Moreover, the “Serum Glucose (mg/dl) Day 0” value in the assay with db/db mice (Table 18, Day 0 (pretreatment), female db/db mice, Compound Ia 0.1 mg/kg, Metformin 100 mg/kg p.o. once daily) turned out to be 375.4 mg/dL. Besides, the “Serum Glucose (mg/dl) Day 12” value with db/db mice (Table 18, Day 12, one hour after dose, non-fasting, Compound Ia 0.1 mg/kg, Metformin 100 mg/kg p.o. once daily) came to 209.0 mg/dL. Moreover, the “% Change Vs control” value in the assay with db/db mice (Table 18, serum glucose day 12 vs vehicle control, Compound Ia 0.1 mg/kg, Metformin 100 mg/kg) was −34.3%. Also, the “% Change Day 12 vs Day 0” value with db/db mice (Table 18, serum glucose, Compound Ia 0.1 mg/kg, Metformin 100 mg/kg) was −43.8%. Further, in the assay with db/db mice (female db/db mice, Compound (Ia) 0.1 mg/kg, Metformin 100 mg/kg), the “reduction in serum glucose” value is 34.3%.
